Measured values published in US20070191402A1, “Method of searching substrate having antidiabetic activity” (KYOWA HAKKO KOGYO CO., LTD., priority 2002, published 2007).

How the values were obtained:
[1] = tested on: MIN6 cell; experiment: Insulin secretion test using MIN6 cell; format: cell-based, murine; details: MIN6 cell; glucose 14.5 mmol/l or 8.4 mmol/l
Procedure: Culturing MIN6 cell and testing insulin secretion using MIN6 cell were carried out according to the method described in Diabetorogia, 36, 1139-1145 (1993).
In other words, the influence of a compound on the insulin secretion activity in the presence of 14.5 mmol/l glucose was assessed by assaying the amount of insulin in the cell culture supernatant collected as follows.
The MIN6 cell cultured in a 24-well plate was washed twice with 1 ml of buffer A [119 mmol/l NaCl, 4.74 mmol/l KCl, 2.54 mmol/l CaCl2, 1.19 mmol/l MgSO4, 1.19 mmol/l KH2PO4, 10 mmol/l 2-[4-(2-hydroxylethyl)-1-piperadinyl]ethanesulfonic acid, 0.1% BSA, pH 7.3] containing 2 mmol/l glucose. Subsequently, the resulting cell was incubated in 1 ml of the buffer A containing 2 mmol/l glucose at 37° C. for 45 minutes. The culture supernatant was exchanged with the buffer A (1 ml) containing test compounds of various concentrations and 8.4 mmol/l glucose and incubated at 37° C. for 45 minutes to collect the culture supernatant.
Antibody-reactive insulin secreted in the culture supernatant was assayed by radioimmunoassay [Methods in Investigative and Diagnostic Endocrinology, Vol. 2A, 2B, North-Holland Publishing Co., Amsterdam (1973)] after the culture supernatant was diluted with phosphate buffer containing 1% BSA, 0.1% Tween 20, 0.12% EDTA 2Na, and 0.1% sodium azide. A standard curve was prepared by using human insulin as the standard substance, and individual insulin values were calculated on the basis of the curve.

[2] = target: T1, p31 protein (Mus musculus, UniProt Q99LB2); experiment: Inhibition of binding of p31 protein from MIN6 solubilized membrane fraction to Compound 155-immobilized particle (SDS-PAGE); details: 500 μmol/l tested substance, band on SDS-PAGE
T1 construct: endogenous in cells; host or cells: MIN6 (murine pancreatic beta cell line), digitonin-solubilized membrane fraction
T1 sequence (Q99LB2 20-279 limits assumed): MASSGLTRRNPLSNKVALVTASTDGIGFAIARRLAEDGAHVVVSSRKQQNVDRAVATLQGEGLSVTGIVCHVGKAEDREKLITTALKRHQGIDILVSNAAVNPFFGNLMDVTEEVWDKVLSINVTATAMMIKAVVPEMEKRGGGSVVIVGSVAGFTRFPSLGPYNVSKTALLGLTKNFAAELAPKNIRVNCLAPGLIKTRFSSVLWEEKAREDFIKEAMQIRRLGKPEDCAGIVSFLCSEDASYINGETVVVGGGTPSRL
Procedure: The solubilized membrane fraction of MIN6 as prepared in Example 12 was 10-fold diluted with the buffer B. The compound represented by Compound No. 16 (hereinafter referred to as “Compound 16”) at 500 μmol/l was added to 1 ml of the resulting dilution and gently stirred at 4° C. for 2 hours. As a control, the solubilized membrane fraction of MIN6 without addition of the Compound 16 was 10-fold diluted with buffer C [20 mmol/l HEPES, pH 7.4, 2 mmol/l EDTA, 150 mmol/l NaCl, 1% digitonin, 1 mmol/l PMSF, 1 μg/ml aprotinin], and 1 ml of the resulting dilution was gently stirred at 4° C. for 2 hours. Then, a particle immobilizing a compound represented by Compound No. 155 (hereinafter referred to as “Compound 155-immobilized particle”) as prepared in Example 8 was added to the solubilized membrane fraction solution with addition of the Compound 16 and the solubilized membrane fraction solution without addition of any tested substance and gently stirred at 4° C. for 30 minutes. Subsequently, the resulting solutions were centrifuged (12,000 rpm, one minute, 4° C.) to precipitate the particle to thereby remove the supernatants. Then, 750 μl of the buffer C was added and stirred for 3 seconds, followed by centrifugation (12,000 rpm, one minute, 4° C.), to precipitate the particle to remove the supernatant. Then, 750 μl of buffer D [20 mmol/l HEPES, pH 7.4, 2 mmol/l EDTA] was added and stirred for 3 seconds, followed by centrifugation (12,000 rpm, one minute, 4° C.), to precipitate the particle to remove the supernatant. Subsequently, 30 μl of an SDS-polyacrylamide gel electrophoresis sample buffer containing β-mercaptoethanol was added to solubilize the protein binding to Compound 155-immobilized particle, followed by SDS-polyacrylamide gel electrophoresis. Through the purification from the cell extract solution by adding Compound 16 via Compound 155-immobilized particle, p31 protein in which its specific binding to Compound 155-immobilized particle was inhibited by the compound represented by Compound No. 16 was found. […]

[3] = tested on: pancreatic β cell (MIN6 cell); experiment: Inhibition of binding of [3H]-labeled Compound 16 to pancreatic β cell; design: species or system murine; details: test compound 1 μmol/l; 10 nmol/l [3H]-labeled Compound 16; MIN6 cell, 4° C.
Procedure: MIN6 cell cultured to almost confluence in a 24-well plate for cell culture (manufactured by Corning) was washed twice with KRH buffer (119 mmol/l NaCl, 4.74 mmol/KCl, 2.54 mmol/l calcium chloride (CaCl2), 1.19 mmol/l magnesium sulfate (MgSO4), 1.19 mmol/l potassium dihydrogen phosphate (KH2PO4), 10 mmol/l HEPES, 2 mmol/l glucose, 0.1 w/v % bovine serum albumin (BSA), pH 7.3). Subsequently, the KRH buffer was added at 1 ml per well, for preincubation at 37° C. for 45 minutes. After preincubation, the supernatant was discarded, and 0.15 ml of the KRH buffer, […] at 4° C. for one hour or longer until the reaction reached equilibrium. Subsequently, the cell was washed twice using the KRH buffer. The KRH buffer was added at 2 ml per well, which was then left to stand at room temperature for 20 minutes. The cell was again washed twice by using the KRH buffer. The radioactivity remaining in each well was counted with a liquid scintillation counter to determine the binding amount.
The difference between the binding amount of the [^3H]-labeled Compound 16 (total binding amount) under conditions with no addition of any test compound and the binding amount of the [^3H]-labeled Compound 16 (non-specific binding amount) under conditions in the presence of the Compound 16 at 10 μmol/l was defined as specific binding amount.
According to the method described in Example 5, a substance having anti-diabetic activity was screened for, using the inhibitory activity of the binding between pancreatic β cells and [^3H]-labeled Compound 16. A tested substance was dissolved in dimethylsulfoxide and then added to give a final concentration of 1 μmol/l. The radioactivity with addition of the unlabeled Compound 16 was defined as the non-specific binding amount and the radioactivity without addition of the unlabeled Compound 16 was defined as the total binding amount, and then the individual specific binding amounts were calculated by the method described in Example 6. Using the following formula, the binding inhibition ratio was determined. [formula]

CCCN1C(=O)N2CC(Cc3ccccc3)N=C2c2[nH]c(C3CCCC3)nc21 (single isomer, unassigned) [compound 17]
Insulin secretory activity (%) [1]: 15.8%
inhibition of the binding of the p31 protein to the Compound 155-immobilized particle [2]: cannot inhibit the binding of the p31 protein
Binding inhibitory activity (%) [3]: 5.4%
